The results in this text go back to patent US11993599B2, “Therapeutic compounds” (Genentech, Inc., priority 2021, dated 2024).

The target of assay [1] is T1, BRG1 (Homo sapiens, UniProt P51532).
T1 construct: either BRM primary antibody (Cell signaling Cat #11966) or BRG primary antibody (Abcam, ab 110641); endogenous in cells; host or cells: SW1573
The assay can be described thus: Immunofluorescence assay for BRG1 degradation in SW1573 cells. Format: cell-based. To be noted: 20 hours incubation; for DC50: immunofluorescence mean nuclear signal, read-out: BRG1 IF Degradation IC50; for Dmax: SW1573, 20 h, normalized to a known degrader control, read-out: BRG1 IF Degradation Sinf (%). Summed up: (§1)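 Degradation measured as loss of nuclear BRM or BRG1 staining in SW1573 cells after 20 h compound exposure. Signal per cell was imaged and normalized to a known degrader; curves with floating maximum yielded IC50 and Dmax.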

The target of assay [2] is BRM (Homo sapiens, UniProt P51531). Description: Immunofluorescence assay for BRM degradation in SW1573 cells. To be noted: 20 hours incubation; for DC50: immunofluorescence mean nuclear signal, read-out: BRM IF Degradation IC50; for BRM IF Degradation Sinf (%): normalized to a known degrader control. In kind it is cell-based. Also noted: treated overnight at 4° C. with either BRM primary antibody (Cell signaling Cat #11966) or BRG primary antibody; endogenous in cells; host or cells: SW1573. The method in brief: as §1
BRM, sequence (P51531 whole entry): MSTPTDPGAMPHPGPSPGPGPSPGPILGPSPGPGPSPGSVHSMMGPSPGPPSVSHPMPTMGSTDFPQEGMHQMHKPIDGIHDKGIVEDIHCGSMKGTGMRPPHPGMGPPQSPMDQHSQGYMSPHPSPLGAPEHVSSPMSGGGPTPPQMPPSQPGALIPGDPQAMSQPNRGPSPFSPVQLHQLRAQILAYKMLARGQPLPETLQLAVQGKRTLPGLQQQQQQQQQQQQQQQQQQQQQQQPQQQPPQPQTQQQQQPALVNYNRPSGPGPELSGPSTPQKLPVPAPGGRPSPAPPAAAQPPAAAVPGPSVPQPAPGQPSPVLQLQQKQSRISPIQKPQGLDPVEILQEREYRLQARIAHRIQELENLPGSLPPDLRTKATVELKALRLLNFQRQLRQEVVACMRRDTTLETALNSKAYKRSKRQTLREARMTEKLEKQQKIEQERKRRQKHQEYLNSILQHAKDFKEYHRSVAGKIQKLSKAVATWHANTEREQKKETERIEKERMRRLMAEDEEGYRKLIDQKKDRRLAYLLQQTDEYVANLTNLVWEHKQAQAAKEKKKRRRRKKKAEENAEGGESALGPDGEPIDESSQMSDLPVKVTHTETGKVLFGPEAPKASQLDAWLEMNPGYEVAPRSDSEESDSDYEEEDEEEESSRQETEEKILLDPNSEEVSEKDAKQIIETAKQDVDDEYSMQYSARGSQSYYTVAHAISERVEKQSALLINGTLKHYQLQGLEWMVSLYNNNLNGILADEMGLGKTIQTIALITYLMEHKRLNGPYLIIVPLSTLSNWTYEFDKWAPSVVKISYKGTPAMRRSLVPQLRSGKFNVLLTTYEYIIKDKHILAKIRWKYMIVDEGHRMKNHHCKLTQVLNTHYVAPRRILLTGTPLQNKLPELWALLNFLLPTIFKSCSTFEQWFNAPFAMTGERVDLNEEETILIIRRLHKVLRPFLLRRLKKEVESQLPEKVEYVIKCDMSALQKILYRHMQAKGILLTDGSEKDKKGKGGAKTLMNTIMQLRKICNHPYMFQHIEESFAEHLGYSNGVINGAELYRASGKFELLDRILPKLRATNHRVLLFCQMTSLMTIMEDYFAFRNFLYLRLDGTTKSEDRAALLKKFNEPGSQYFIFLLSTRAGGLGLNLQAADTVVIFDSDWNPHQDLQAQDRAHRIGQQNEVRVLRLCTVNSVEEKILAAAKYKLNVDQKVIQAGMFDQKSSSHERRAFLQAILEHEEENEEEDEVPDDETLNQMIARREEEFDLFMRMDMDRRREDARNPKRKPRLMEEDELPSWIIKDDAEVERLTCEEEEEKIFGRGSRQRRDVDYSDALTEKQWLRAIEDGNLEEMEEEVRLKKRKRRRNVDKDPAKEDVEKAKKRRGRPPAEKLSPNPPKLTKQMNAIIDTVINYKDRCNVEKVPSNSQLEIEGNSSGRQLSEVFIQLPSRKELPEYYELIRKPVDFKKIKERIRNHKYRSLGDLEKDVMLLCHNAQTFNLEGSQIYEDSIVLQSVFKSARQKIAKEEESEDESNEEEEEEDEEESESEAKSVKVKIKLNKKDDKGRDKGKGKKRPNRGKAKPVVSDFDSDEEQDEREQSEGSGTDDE

T1 sequence (P51532 whole entry): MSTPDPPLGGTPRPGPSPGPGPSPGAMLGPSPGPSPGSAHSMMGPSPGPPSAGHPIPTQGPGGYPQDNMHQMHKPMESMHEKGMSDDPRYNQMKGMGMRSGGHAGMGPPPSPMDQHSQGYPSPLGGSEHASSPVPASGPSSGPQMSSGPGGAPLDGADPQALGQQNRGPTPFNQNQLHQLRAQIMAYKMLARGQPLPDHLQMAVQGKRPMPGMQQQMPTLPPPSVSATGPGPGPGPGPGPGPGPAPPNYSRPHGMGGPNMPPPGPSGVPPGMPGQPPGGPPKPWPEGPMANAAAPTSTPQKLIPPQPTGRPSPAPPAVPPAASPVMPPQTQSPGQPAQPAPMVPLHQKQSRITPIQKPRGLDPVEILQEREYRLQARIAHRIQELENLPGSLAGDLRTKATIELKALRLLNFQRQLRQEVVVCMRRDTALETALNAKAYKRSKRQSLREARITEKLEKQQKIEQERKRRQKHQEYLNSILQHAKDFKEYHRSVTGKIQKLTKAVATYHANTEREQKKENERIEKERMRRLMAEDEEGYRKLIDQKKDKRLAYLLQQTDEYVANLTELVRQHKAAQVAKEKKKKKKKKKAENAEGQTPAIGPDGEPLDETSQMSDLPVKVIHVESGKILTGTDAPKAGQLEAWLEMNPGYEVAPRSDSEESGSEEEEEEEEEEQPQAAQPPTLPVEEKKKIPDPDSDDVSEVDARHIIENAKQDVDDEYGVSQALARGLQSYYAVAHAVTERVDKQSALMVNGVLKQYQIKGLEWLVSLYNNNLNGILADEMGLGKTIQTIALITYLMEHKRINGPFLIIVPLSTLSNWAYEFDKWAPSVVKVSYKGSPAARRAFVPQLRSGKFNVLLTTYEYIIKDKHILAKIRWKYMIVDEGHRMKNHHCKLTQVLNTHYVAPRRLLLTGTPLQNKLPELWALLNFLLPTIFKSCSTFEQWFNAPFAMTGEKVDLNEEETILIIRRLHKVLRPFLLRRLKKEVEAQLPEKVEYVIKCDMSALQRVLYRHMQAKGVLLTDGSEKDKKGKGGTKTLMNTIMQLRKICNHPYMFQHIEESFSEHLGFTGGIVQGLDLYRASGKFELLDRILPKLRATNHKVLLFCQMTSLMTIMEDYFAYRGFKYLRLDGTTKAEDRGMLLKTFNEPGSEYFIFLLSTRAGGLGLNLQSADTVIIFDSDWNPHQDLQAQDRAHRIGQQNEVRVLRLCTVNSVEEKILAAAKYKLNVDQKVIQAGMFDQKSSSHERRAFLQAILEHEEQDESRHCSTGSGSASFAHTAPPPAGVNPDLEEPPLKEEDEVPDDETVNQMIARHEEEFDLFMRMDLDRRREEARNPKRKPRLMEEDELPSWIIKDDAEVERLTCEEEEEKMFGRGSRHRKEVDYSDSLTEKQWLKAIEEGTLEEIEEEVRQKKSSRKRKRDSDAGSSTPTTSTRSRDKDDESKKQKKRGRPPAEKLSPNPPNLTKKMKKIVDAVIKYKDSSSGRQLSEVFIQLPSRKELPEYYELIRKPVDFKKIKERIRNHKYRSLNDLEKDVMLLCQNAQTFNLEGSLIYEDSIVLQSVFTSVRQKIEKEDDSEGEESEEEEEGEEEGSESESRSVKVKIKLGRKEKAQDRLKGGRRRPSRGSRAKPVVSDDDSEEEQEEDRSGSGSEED

On to `CC1(O)CCCN(CC#Cc2cc(N3C4CCC3CN(c3cc(-c5ccccc5O)nnc3N)C4)ccn2)CC1` (stereo not drawn) [Compound 244, 1-[3-[4-[3-[3-amino-6-(2-hydroxyphenyl)pyridazin-4-yl]-3,8-diazabicyclo[3.2.1]octan-8-yl]-2-pyridyl]prop-2-ynyl]-4-methyl-azepan-4-ol], for which, in assay [1], the DC50 is less than 10 nM and the Dmax is 30 to 70%. Besides, in assay [2], the DC50 fell in the range of 10 to 100 nM and the “BRM IF Degradation Sinf (%)” value was “E (E indicates −30%-−70%)”.

As to `Nc1nnc(-c2ccccc2O)cc1N1CC2CCC(C1)N2c1ccnc(C#CCN2CCCCCC2)n1` [Compound 245, 2-(6-amino-5-(8-(2-(3-(azepan-1-yl)prop-1-yn-1-yl)pyrimidin-4-yl)-3,8-diazabicyclo[3.2.1]octan-3-yl)pyridazin-3-yl)phenol], in assay [1], the DC50 is less than 10 nM and the Dmax is 30 to 70%. In addition, in assay [2], the DC50 was less than 10 nM and the “BRM IF Degradation Sinf (%)” value is “F (F indicates −71%-−120%)”.

Consider `Nc1nnc(-c2ccccc2O)cc1N1CC2CCC(C1)N2c1cnnc(C#CCN2CCCCCC2)c1` [Compound 246, 2-(6-amino-5-(8-(6-(3-(azepan-1-yl)prop-1-yn-1-yl)pyridazin-4-yl)-3,8-diazabicyclo[3.2.1]octan-3-yl)pyridazin-3-yl)phenol], for which, in assay [1], the DC50 was less than 10 nM and the Dmax was 71 to 120%. For the same molecule, in assay [2], the DC50 lay in the range of 10 to 100 nM and the “BRM IF Degradation Sinf (%)” value is listed as “F (F indicates −71%-−120%)”.

Consider `Nc1nnc(-c2ccccc2O)cc1N1CC2CCC(C1)N2c1cc(C#CCN2CCCCCC2)ncn1` [Compound 247, 2-(6-amino-5-(8-(6-(3-(azepan-1-yl)prop-1-yn-1-yl)pyrimidin-4-yl)-3,8-diazabicyclo[3.2.1]octan-3-yl)pyridazin-3-yl)phenol], for which, in assay [1], the DC50 is less than 10 nM and the Dmax lay within 71 to 120%. In addition, in assay [2], the DC50 is less than 10 nM and the “BRM IF Degradation Sinf (%)” value is recorded as “F (F indicates −71%-−120%)”.

As for `Nc1nnc(-c2ccccc2O)cc1N1CCC2(CCN(c3ccnc(C#CCN4CCCCCC4)c3)CC2)CC1` [Compound 249, 2-(6-amino-5-(9-(2-(3-(azepan-1-yl)prop-1-yn-1-yl)pyridin-4-yl)-3,9-diazaspiro[5.5]undecan-3-yl)pyridazin-3-yl)phenol], the DC50 in assay [1] is more than 100 nM. In addition, in assay [2], the DC50 was less than 10 nM and the “BRM IF Degradation Sinf (%)” value is “E (E indicates −30%-−70%)”.

Consider `Nc1nnc(-c2ccccc2O)cc1N1CCC2(CCN(c3ccnc(C#CCN4CCCCCC4)c3)C2)CC1` [Compound 250, 2-(6-amino-5-(2-(2-(3-(azepan-1-yl)prop-1-yn-1-yl)pyridin-4-yl)-2,8-diazaspiro[4.5]decan-8-yl)pyridazin-3-yl)phenol], for which, in assay [1], the DC50 lay in the range of 10 to 100 nM and the Dmax lay within 30 to 70%. Further, in assay [2], the DC50 was less than 10 nM and the “BRM IF Degradation Sinf (%)” value was “E (E indicates −30%-−70%)”.

Consider `Nc1nnc(-c2ccccc2O)cc1N1CC2(CN(c3ccnc(C#CCN4CCCCCC4)c3)C2)C1` [Compound 251, 2-[6-amino-5-[6-[2-[3-(azepan-1-yl)prop-1-ynyl]-4-pyridyl]-2,6-diazaspiro[3.3]heptan-2-yl]pyridazin-3-yl]phenol], for which, in assay [1], the DC50 is 10 to 100 nM and the Dmax lay in the range of 30 to 70%. In addition, in assay [2], the DC50 is less than 10 nM and the “BRM IF Degradation Sinf (%)” value was “E (E indicates −30%-−70%)”.
